Measurements: article PMC11079024, “Identification of a family of species-selective complex I inhibitors as potential anthelmintics” (Nature Communications, 2024)
Read-outs that look alike come from different tables or passages of the source.

Assays:
[1] = target: C. elegans (N2) complex I (NADH:ubiquinone oxidoreductase) (Caenorhabditis elegans, UniProt P24887+Q93873+Q94360); assay: biochemical; assay type: biochemical; conditions: for activity at 0.0001 µM / activity at 0.0005 µM / activity at 0.001 µM / activity at 0.0025 µM / activity at 0.005 µM / activity at 0.013 µM / activity at 0.025 µM / activity at 0.063 µM / activity at 0.125 µM / activity at 0.313 µM / activity at 0.625 µM / activity at 1.5 µM / activity at 3 µM / activity at 15 µM / activity at 37.5 µM / activity at 75 µM: read-out: C. elegans mitochondrial complex I activity; for Log IC50 C. elegans complex I: log10 of IC50 in µM, C. elegans mitochondria
Method in brief: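 Mitochondria, 0.2 mg/mL protein, freeze-thawed three times, assayed in 25 mM KPi pH 7.5 with BSA, 80 μM NADH, 60 μM decylubiquinone, 160 μM DCIP, antimycin A and KCN. Rate from initial linear slope of A600 over 15 min. % of solvent control.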

in vitro = conditions: human; for viability at 2 days, 3.13 µM / viability at 2 days, 6.25 µM / viability at 2 days, 12.5 µM / viability at 2 days, 25 µM / viability at 2 days, 50 µM / viability at 2 days, 100 µM: HEK293 cells (Flp-In-293)
L1 wild-type C. elegans = conditions: for Screen "Hit": 50 μM
[2] = wild-type C. elegans, individual Rep1-Rep4, read-out: percent in vitro complex I activity relative to solvent control, single replicates
[3] = wild-type C. elegans, mean of Rep1-4, read-out: percent in vitro complex I activity relative to solvent control, Mean
[4] = in vitro complex I dose response on C. elegans mitochondria, average of at least two biological replicates, fit in R (DRC), read-out: IC50 C. elegans complex I
[5] = wild-type C. elegans mitochondria, estimated from fitted dose-response curves, read-out: C. elegans Complex I IC50
[6] = HEK293 Cell Viability Assay LC50, HEK293 cells, estimated from fitted dose-response curves, mean of at least two biological replicates
[7] = Dose 0.2 µM, mean of at least three biological replicates
[8] = hit = relative motility below 0.25 3 hours after removal of KCN

Sequence of C. elegans (N2) complex I (NADH:ubiquinone oxidoreductase) (Q94360 17-199): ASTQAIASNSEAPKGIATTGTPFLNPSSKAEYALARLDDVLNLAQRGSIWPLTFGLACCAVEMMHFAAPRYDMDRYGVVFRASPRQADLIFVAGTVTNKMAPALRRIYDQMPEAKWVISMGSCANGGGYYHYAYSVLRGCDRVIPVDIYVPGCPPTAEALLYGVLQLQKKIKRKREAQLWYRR
Sequence of C. elegans (N2) complex I (NADH:ubiquinone oxidoreductase) (P24887 whole entry): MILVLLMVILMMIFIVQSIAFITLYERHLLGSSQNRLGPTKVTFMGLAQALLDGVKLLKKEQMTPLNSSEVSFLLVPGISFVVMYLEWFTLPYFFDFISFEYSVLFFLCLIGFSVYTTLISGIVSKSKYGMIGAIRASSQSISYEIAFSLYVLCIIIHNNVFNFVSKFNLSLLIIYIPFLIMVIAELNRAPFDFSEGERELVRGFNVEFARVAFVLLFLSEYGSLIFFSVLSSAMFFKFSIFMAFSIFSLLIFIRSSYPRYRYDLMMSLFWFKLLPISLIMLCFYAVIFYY
Sequence of C. elegans (N2) complex I (NADH:ubiquinone oxidoreductase) (Q93873 31-482): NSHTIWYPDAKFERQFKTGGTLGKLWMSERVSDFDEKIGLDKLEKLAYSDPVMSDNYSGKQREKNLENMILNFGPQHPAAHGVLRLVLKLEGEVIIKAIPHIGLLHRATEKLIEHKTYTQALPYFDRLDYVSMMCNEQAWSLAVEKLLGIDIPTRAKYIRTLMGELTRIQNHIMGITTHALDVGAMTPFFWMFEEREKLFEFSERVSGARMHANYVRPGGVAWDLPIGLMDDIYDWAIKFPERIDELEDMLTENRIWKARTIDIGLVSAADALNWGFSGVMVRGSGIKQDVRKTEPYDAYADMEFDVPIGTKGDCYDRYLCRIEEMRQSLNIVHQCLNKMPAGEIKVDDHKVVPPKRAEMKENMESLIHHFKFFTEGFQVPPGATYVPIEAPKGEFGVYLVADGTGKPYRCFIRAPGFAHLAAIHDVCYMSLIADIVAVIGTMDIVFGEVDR

Clc1ccccc1OCCCCn1cnc2ccccc21 [Compound 7925804]
remaining activity at 0.0001 µM [1, 2]: 106%
remaining activity at 0.0001 µM [1, 3]: 95.7%
remaining activity at 0.0005 µM [1, 2]: 98.1%
remaining activity at 0.0005 µM [1, 3]: 95.4%
remaining activity at 0.001 µM ([1]; 0.001 µM, wild-type C. elegans, mean of Rep1-4, read-out: percent in vitro complex I activity relative to solvent control, Mean): 95.9%
remaining activity at 0.0025 µM [1, 2]: 100%
remaining activity at 0.0025 µM [1, 3]: 100%
remaining activity at 0.005 µM [1, 2]: 93.7%
remaining activity at 0.005 µM [1, 3]: 93.4%
remaining activity at 0.013 µM [1, 2]: 92.2%
remaining activity at 0.013 µM [1, 3]: 96.2%
remaining activity at 0.025 µM [1, 2]: 86.9%
remaining activity at 0.025 µM [1, 3]: 94.4%
remaining activity at 0.063 µM [1, 2]: 83.6%
remaining activity at 0.063 µM [1, 3]: 81.6%
remaining activity at 0.125 µM [1, 2]: 65.6%
remaining activity at 0.125 µM [1, 3]: 64.9%
remaining activity at 0.313 µM [1, 2]: 53.9%
remaining activity at 0.313 µM [1, 3]: 47.4%
remaining activity at 0.625 µM ([1]; 0.625 µM, wild-type C. elegans, mean of Rep1-4, read-out: percent in vitro complex I activity relative to solvent control, Mean): 32.7%
remaining activity at 1.5 µM ([1]; 1.5 µM, wild-type C. elegans, mean of Rep1-4, read-out: percent in vitro complex I activity relative to solvent control, Mean): 15.5%
remaining activity at 3 µM ([1]; 3 µM, wild-type C. elegans, mean of Rep1-4, read-out: percent in vitro complex I activity relative to solvent control, Mean): 8.88%
remaining activity at 15 µM ([1]; 15 µM, wild-type C. elegans, mean of Rep1-4, read-out: percent in vitro complex I activity relative to solvent control, Mean): 2.59%
remaining activity at 37.5 µM ([1]; 37.5 µM, wild-type C. elegans, mean of Rep1-4, read-out: percent in vitro complex I activity relative to solvent control, Mean): 2.95%
remaining activity at 75 µM ([1]; 75 µM, wild-type C. elegans, mean of Rep1-4, read-out: percent in vitro complex I activity relative to solvent control, Mean): 6.38%
activity at 0.0001 µM [1]: 95.7%
activity at 0.0005 µM [1]: 95.4%
activity at 0.001 µM [1]: 95.9%
activity at 0.0025 µM [1]: 100%
activity at 0.005 µM [1]: 93.4%
activity at 0.013 µM [1]: 96.2%
activity at 0.025 µM [1]: 94.4%
activity at 0.063 µM [1]: 81.6%
activity at 0.125 µM [1]: 64.9%
activity at 0.313 µM [1]: 47.4%
activity at 0.625 µM [1]: 32.7%
activity at 1.5 µM [1]: 15.5%
activity at 3 µM [1]: 8.88%
activity at 15 µM [1]: 2.59%
activity at 37.5 µM [1]: 2.95%
activity at 75 µM [1]: 6.38%
IC50 [1, 4]: 0.27 µM
Log IC50 C. elegans complex I [1]: -0.57 µM
IC50 [1, 5]: 0.27 µM
CC50 at 2 days (in vitro; [6]): 40.2 µM
viability at 2 days, 3.13 µM (in vitro; HEK293 viability, Dose 3.13 µM): 100%
viability at 2 days, 6.25 µM (in vitro; HEK293 viability): 99.5%
viability at 2 days, 12.5 µM (in vitro; HEK293 viability): 97.9%
viability at 2 days, 25 µM (in vitro; HEK293 viability): 73.8%
viability at 2 days, 50 µM (in vitro; HEK293 viability): 40.2%
viability at 2 days, 100 µM (in vitro; HEK293 viability): 8%
Screen "Hit" (L1 wild-type C. elegans; KCN survival assay, hit = relative motility below 0.25): Y (hits were identified as compounds that reduced relative motility below 0.25 (75% reduction))
C. elegans KCN Survival (L1 wild-type C. elegans; [7]): 1.043
C. elegans KCN Survival (L1 wild-type C. elegans; Dose 0.39 µM): 1.064
C. elegans KCN Survival (L1 wild-type C. elegans; Dose 1.56 µM): 1.052
C. elegans KCN Survival (L1 wild-type C. elegans; Dose 3.13 µM): 1.018
C. elegans KCN Survival (L1 wild-type C. elegans; Dose 6.25 µM): 0.644
C. elegans KCN Survival (L1 wild-type C. elegans; Dose 12.5 µM): 0.155
C. elegans KCN Survival (L1 wild-type C. elegans; Dose 25 µM): 0.142
C. elegans KCN Survival (L1 wild-type C. elegans; Dose 50 µM): 0.136
C. elegans KCN Survival (L1 wild-type C. elegans; Dose 100 µM): 0.181

Cc1ccc(SCCCn2cnc3ccccc32)cc1 [Compound 7926035]
activity at 0.0001 µM [1]: 90.2%
activity at 0.0005 µM [1]: 95.5%
activity at 0.001 µM [1]: 88.3%
activity at 0.0025 µM [1]: 100%
activity at 0.005 µM [1]: 101%
activity at 0.013 µM [1]: 96.9%
activity at 0.025 µM [1]: 95.3%
activity at 0.063 µM [1]: 85.5%
activity at 0.125 µM [1]: 96.1%
activity at 0.313 µM [1]: 69.9%
activity at 0.625 µM [1]: 33.2%
activity at 1.5 µM [1]: 33.2%
activity at 3 µM [1]: 8.58%
activity at 15 µM [1]: 3.26%
activity at 37.5 µM [1]: 1.04%
activity at 75 µM [1]: 3.35%
IC50 [1, 4]: 0.54 µM
Log IC50 C. elegans complex I [1]: -0.27 µM
IC50 [1, 5]: 0.54 µM
CC50 at 2 days (in vitro; [6]): 71.4 µM
viability at 2 days, 3.13 µM (in vitro; HEK293 viability, Dose 3.13 µM): 90.8%
viability at 2 days, 6.25 µM (in vitro; HEK293 viability): 96.6%
viability at 2 days, 12.5 µM (in vitro; HEK293 viability): 98.4%
viability at 2 days, 25 µM (in vitro; HEK293 viability): 97.6%
viability at 2 days, 50 µM (in vitro; HEK293 viability): 65.6%
viability at 2 days, 100 µM (in vitro; HEK293 viability): 30.4%
Screen "Hit" (L1 wild-type C. elegans; [8]): Y (hits were identified as compounds that reduced relative motility below 0.25 (75% reduction))
C. elegans KCN Survival (L1 wild-type C. elegans; [7]): 0.990
C. elegans KCN Survival (L1 wild-type C. elegans; Dose 0.39 µM): 0.961
C. elegans KCN Survival (L1 wild-type C. elegans; Dose 1.56 µM): 0.929
C. elegans KCN Survival (L1 wild-type C. elegans; Dose 3.13 µM): 0.707
C. elegans KCN Survival (L1 wild-type C. elegans; Dose 6.25 µM): 0.388
C. elegans KCN Survival (L1 wild-type C. elegans; Dose 12.5 µM): 0.123
C. elegans KCN Survival (L1 wild-type C. elegans; Dose 25 µM): 0.118
C. elegans KCN Survival (L1 wild-type C. elegans; Dose 50 µM): 0.139
C. elegans KCN Survival (L1 wild-type C. elegans; Dose 100 µM): 0.184

CC(C)Oc1cccc(OCCn2cnc3ccccc32)c1 [Compound 7926496]
activity at 0.0001 µM [1]: 80%
activity at 0.0005 µM [1]: 92.9%
activity at 0.001 µM [1]: 87.5%
activity at 0.0025 µM [1]: 88.5%
activity at 0.005 µM [1]: 89.3%
activity at 0.013 µM [1]: 88.3%
activity at 0.025 µM [1]: 81.7%
activity at 0.063 µM [1]: 79.5%
activity at 0.125 µM [1]: 81.6%
activity at 0.313 µM [1]: 76.9%
activity at 0.625 µM [1]: 83.9%
activity at 1.5 µM [1]: 76.4%
activity at 3 µM [1]: 65%
activity at 15 µM [1]: 17.8%
activity at 37.5 µM [1]: 0.13%
activity at 75 µM [1]: 0%
IC50 [1, 4]: 6.2 µM
Log IC50 C. elegans complex I [1]: 0.79 µM
IC50 ([1]; wild-type C. elegans mitochondria, read-out: C. elegans Complex I IC50): 6.2 µM
CC50 at 2 days (in vitro): 94.5 µM
viability at 2 days, 6.25 µM (in vitro; HEK293 viability): 97.4%
viability at 2 days, 12.5 µM (in vitro; HEK293 viability): 96.9%
viability at 2 days, 25 µM (in vitro; HEK293 viability): 97.3%
viability at 2 days, 50 µM (in vitro; HEK293 viability): 85.9%
viability at 2 days, 100 µM (in vitro; HEK293 viability): 43.4%
viability (in vitro; HEK293 viability, Dose 3.13 µM): 91.5%
Screen "Hit" (L1 wild-type C. elegans; [8]): Y (hits were identified as compounds that reduced relative motility below 0.25 (75% reduction))
C. elegans KCN Survival (L1 wild-type C. elegans; [7]): 1.017
C. elegans KCN Survival (L1 wild-type C. elegans; Dose 0.39 µM): 1.017
C. elegans KCN Survival (L1 wild-type C. elegans; Dose 1.56 µM): 1.072
C. elegans KCN Survival (L1 wild-type C. elegans; Dose 3.13 µM): 1.070
C. elegans KCN Survival (L1 wild-type C. elegans; Dose 6.25 µM): 1.047
C. elegans KCN Survival (L1 wild-type C. elegans; Dose 12.5 µM): 0.937
C. elegans KCN Survival (L1 wild-type C. elegans; Dose 25 µM): 0.437
C. elegans KCN Survival (L1 wild-type C. elegans; Dose 50 µM): 0.153
C. elegans KCN Survival (L1 wild-type C. elegans; Dose 100 µM): 0.199
